Among the data in patent US10654837B2, “Sulphamoylaryl derivatives and use thereof as medicaments for the treatment of liver fibrosis” (Janssen Pharmaceutica NV, priority 2017, dated 2020) are IC50 values, retold here.

T1 sequence (P41595 whole entry): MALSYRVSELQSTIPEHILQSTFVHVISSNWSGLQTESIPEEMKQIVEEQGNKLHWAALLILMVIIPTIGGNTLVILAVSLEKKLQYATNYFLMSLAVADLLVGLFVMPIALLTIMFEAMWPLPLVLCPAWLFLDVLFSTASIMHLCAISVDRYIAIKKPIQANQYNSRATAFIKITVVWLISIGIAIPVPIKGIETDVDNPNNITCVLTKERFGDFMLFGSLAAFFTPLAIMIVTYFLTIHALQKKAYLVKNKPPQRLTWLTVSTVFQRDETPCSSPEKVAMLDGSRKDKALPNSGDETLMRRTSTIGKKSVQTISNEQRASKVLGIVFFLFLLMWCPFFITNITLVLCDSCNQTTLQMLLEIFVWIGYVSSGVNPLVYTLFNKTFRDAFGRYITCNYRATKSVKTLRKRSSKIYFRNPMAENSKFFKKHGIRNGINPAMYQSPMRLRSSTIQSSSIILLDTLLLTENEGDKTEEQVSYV

This assay addresses T1, 5HTR2B (Homo sapiens, UniProt P41595).
T1 construct: host or cells: human Maverick/293 cells
Nature of the assay: 5HTR2B antagonist activity, calcium mobilization assay in human Maverick/293 cells (serotonin as agonist). The assay is classed as cell-based. As to conditions: intracellular calcium, emission 525 nm, read-out: Ca assay IC50. An outline of the steps: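 Calcium mobilization read over 80 s at ex 485/em 525 nm after serotonin addition. Before that, 2 h serum-free starvation, 50 min dye loading at 37 °C, and 15-30 min antagonist exposure. IC50 from sigmoidal fit of peak % inhibition.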
As usually defined, the IC50 is the concentration that inhibits the measured activity by half. Take `COc1ccc(S(=O)(=O)N[C@@H]2CCNC2)cc1C(=O)Nc1ccc(F)cc1` [Compound 180, (R)—N-(4-Fluorophenyl)-2-methoxy-5-(N-(pyrrolidin-3-yl)sulfamoyl)benzamide]: the 50% inhibitory concentration (IC50) is 3.3 nM.

In the case of `COc1ccc(S(=O)(=O)N[C@@H]2CCNC2)cc1C(=O)Nc1ccc(F)c(C(F)F)c1` [Compound 181], the IC50 came to 4.5 nM.

As to `COc1ccc(S(=O)(=O)N[C@H]2CCNC2)cc1C(=O)Nc1ccc(F)cc1F` [Compound 182], the IC50 amounted to 0.3 nM.

On to `COc1ccc(S(=O)(=O)N[C@H]2CCNC2)cc1C(=O)Nc1ccc(F)c(C(F)F)c1` [Compound 183, (S)—N-(3-(difluoromethyl)-4-fluorophenyl)-2-methoxy-5-(N-(pyrrolidin-3-yl)sulfamoyl)benzamide], for which the IC50 worked out at 0.5 nM.

For the compound `COc1ccccc1NC(=O)c1cc(S(=O)(=O)N[C@H]2CCNC2)ccc1OC` [Compound 184, (S)-2-methoxy-N-(2-methoxyphenyl)-5-(N-(pyrrolidin-3-yl)sulfamoyl) benzamide], the IC50 was determined as 0.3 nM.

Regarding `COc1ccc(S(=O)(=O)N[C@H]2CCNC2)cc1C(=O)Nc1ccc(Cl)cc1F` [Compound 185, (S)—N-(4-chloro-2-fluorophenyl)-2-methoxy-5-(N-(pyrrolidin-3-yl)sulfamoyl) benzamide], the half-inhibitory concentration (IC50) was determined as 0.8 nM.

For the compound `COc1ccc(S(=O)(=O)N[C@H]2CCNC2)cc1C(=O)Nc1cc(F)ccc1Cl` [Compound 186, (S)—N-(2-chloro-5-fluorophenyl)-2-methoxy-5-(N-(pyrrolidin-3-yl)sulfamoyl) benzamide], the IC50 stood at 0.3 nM.

In the case of `COc1ccc(S(=O)(=O)N[C@H]2CCNC2)cc1C(=O)Nc1ccc(F)c(C)c1` [Compound 187, (S)—N-(4-fluoro-3-methylphenyl)-2-methoxy-5-(N-(pyrrolidin-3-yl)sulfamoyl) benzamide], the half-inhibitory concentration (IC50) amounted to 0.7 nM.

On to `COc1ccc(S(=O)(=O)N[C@@H]2CCNC2)cc1C(=O)Nc1ccc(F)cc1F` [Compound 188, (R)—N-(2,4-difluorophenyl)-2-methoxy-5-(N-(pyrrolidin-3-yl)sulfamoyl) benzamide], for which the IC50 stood at 1.6 nM.

Regarding `COc1ccc(S(=O)(=O)N(C)[C@H]2CCOC2)cc1C(=O)Nc1ccc(F)c(C)n1` [Compound 189, (S)—N-(5-fluoro-6-methylpyridin-2-yl)-2-methoxy-5-(N-methyl-N-(tetrahydrofuran-3-yl)sulfamoyl) benzamide], the IC50 was 14 nM.

Turning to `[2H]C([2H])([2H])Oc1ccc(S(=O)(=O)N[C@H]2CCOC2)cc1C(=O)Nc1ccc(F)cc1` [Compound 190, (S)—N-(4-fluorophenyl)-2-(methoxy-d3)-5-(N-(tetrahydrofuran-3-yl)sulfamoyl) benzamide], the IC50 was determined as 0.9 nM.

In the case of `[2H]C([2H])([2H])Oc1ccc(S(=O)(=O)N[C@H]2CCOC2)cc1C(=O)Nc1ccc(F)c(C)c1` [Compound 191, (S)—N-(4-fluoro-3-methylphenyl)-2-(methoxy-d3)-5-(N-(tetrahydrofuran-3-yl)sulfamoyl)benzamide], the half-maximal inhibitory concentration (IC50) is 1.1 nM.

Consider `[2H]C([2H])([2H])Oc1ccc(S(=O)(=O)N[C@H]2CCOC2)cc1C(=O)Nc1ccc(F)c(C(F)F)c1` [Compound 192, (S)—N-(3-(Difluoromethyl)-4-fluorophenyl)-2-(methoxy-d3)-5-(N-(tetrahydrofuran-3-yl)sulfamoyl)benzamide], for which the half-inhibitory concentration (IC50) was 0.4 nM.

In the case of `[2H]C([2H])([2H])Oc1ccc(S(=O)(=O)N[C@H]2CCOC2)cc1C(=O)Nc1ccc(F)cn1` [Compound 193, (S)—N-(5-fluoropyridin-2-yl)-2-(methoxy-d3)-5-(N-(tetrahydrofuran-3-yl)sulfamoyl)benzamide], the IC50 is 3.2 nM.

For the compound `[2H]C([2H])([2H])Oc1ccc(S(=O)(=O)N[C@H]2CCOC2)cc1C(=O)Nc1ccc(F)c(C)n1` [Compound 194, (S)—N-(5-fluoro-6-methylpyridin-2-yl)-2-(methoxy-d3)-5-(N-(tetrahydrofuran-3-yl)sulfamoyl)benzamide], the IC50 worked out at 1.1 nM.

With `[2H]C([2H])([2H])Oc1ccc(S(=O)(=O)N[C@H]2CCOC2)cc1C(=O)Nc1ccc(F)c(C2CC2)n1` [Compound 195, (S)—N-(6-cyclopropyl-5-fluoropyridin-2-yl)-2-(methoxy-d3)-5-(N-(tetrahydrofuran-3-yl)sulfamoyl)benzamide], the IC50 is 0.9 nM.

For the compound `[2H]C([2H])([2H])Oc1ccc(S(=O)(=O)N[C@H]2CCOC2)cc1C(=O)Nc1ncc(F)cc1F` [Compound 196, (S)—N-(3,5-difluoropyridin-2-yl)-2-(methoxy-d3)-5-(N-(tetrahydrofuran-3-yl)sulfamoyl)benzamide], the IC50 was determined as 19 nM.

For the compound `Cc1nc(NC(=O)c2cc(S(=O)(=O)N[C@H]3CCOC3)ccc2OC(C)C)ccc1F` [Compound 197, (S)—N-(5-fluoro-6-methylpyridin-2-yl)-2-isopropoxy-5-(N-(tetrahydrofuran-3-yl)sulfamoyl)benzamide], the half-inhibitory concentration (IC50) came out at 5.3 nM.

As to `CCOc1ccc(S(=O)(=O)N[C@H]2CCOC2)cc1C(=O)Nc1ccc(F)c(C)n1` [Compound 198, (S)-2-ethoxy-N-(5-fluoro-6-methylpyridin-2-yl)-5-(N-(tetrahydrofuran-3-yl)sulfamoyl)benzamide], the 50% inhibitory concentration (IC50) turned out to be 0.7 nM.

For the compound `CCCOc1ccc(S(=O)(=O)N[C@H]2CCOC2)cc1C(=O)Nc1ccc(F)c(C)n1` [Compound 199, (S)—N-(5-fluoro-6-methylpyridin-2-yl)-2-propoxy-5-(N-(tetrahydrofuran-3-yl)sulfamoyl) benzamide], the IC50 was 3.7 nM.

For `COc1c(F)cc(S(=O)(=O)N[C@H]2CCOC2)cc1C(=O)Nc1ccc(F)c(C)c1` [Compound 200, (S)-3-fluoro-N-(4-fluoro-3-methylphenyl)-2-methoxy-5-(N-(tetrahydrofuran-3-yl)sulfamoyl)benzamide], the half-inhibitory concentration (IC50) was found to be 3.3 nM.

For the compound `COc1cc(F)c(S(=O)(=O)N[C@H]2CCOC2)cc1C(=O)Nc1ccc(F)c(C)c1` [Compound 201, (S)-4-fluoro-N-(4-fluoro-3-methylphenyl)-2-methoxy-5-(N-(tetrahydrofuran-3-yl)sulfamoyl)benzamide], the IC50 was found to be 8.6 nM.

As for `COc1ccc(S(=O)(=O)N[C@H]2CCOC2)cc1NC(=O)c1ccc(F)c(C)c1` [Compound 203, (S)-4-Fluoro-N-(2-methoxy-5-(N-(tetrahydrofuran-3-yl)sulfamoyl)phenyl)-3-methylbenzamide], the IC50 was found to be 13 nM.
